Results reported in PubChem BioAssay AID1259407 (Chemical Carcinogenesis Research Information System (CCRIS), 2018).
Activity calls are given as the source filed them. How the calls were made is not given here.

Tested on: CCRIS mutagenicity, Ames/micronucleus/aberration tests
Experiment: CCRIS mutagenicity studies
[1] = Test System: AMES SALMONELLA TYPHIMURIUM, Strain/Indicator: TA98, Metabolic Activation: NONE, Method: PREINCUBATION
[2] = Test System: AMES SALMONELLA TYPHIMURIUM, Strain/Indicator: TA100, Metabolic Activation: NONE, Method: PREINCUBATION

CCc1nc(N)nc(N)c1-c1ccc(Cl)cc1
mutagenic call (End Point: IN VITRO CHROMOSOMAL ABERRATIONS, Test System: HUMAN LYMPHOCYTES, Metabolic Activation: NONE): active; positive
mutagenic call (End Point: IN VITRO MICRONUCLEUS, Test System: HAMSTER V79 CELLS, Metabolic Activation: NONE): inactive; negative
mutagenic call (End Point: In vivo chromosomal aberrations, Species: Mouse, Strain/Sex: Swiss/Male, Route: Intraperitoneal): active; positive (at highest dose only)
mutagenic call (End Point: In vivo chromosomal aberrations, Test System: Bone marrow cells, Species: Mouse, Strain/Sex: Swiss/Male, Route: Intraperitoneal): active; positive (chromatid breaks and acentric fragments)
mutagenic call (End Point: In vivo chromosomal aberrations, Test System: Spermatocytes, Species: Mouse, Strain/Sex: Swiss/Male, Route: Intraperitoneal): active; positive (at highest dose only)
mutagenic call (Test System: E.COLI, Strain/Indicator: WP2UVRA/PKM101, Metabolic Activation: NONE, Method: PREINCUBATION): inactive; negative
mutagenic call (Test System: E.COLI, Strain/Indicator: WP2UVRA/PKM101, Metabolic Activation: RAT LIVER S-9, PHENOBARBITAL AND 5,6-BENZOFLAVONE, Method: PREINCUBATION): inactive; negative

O=c1oc2ccc([N+](=O)[O-])c3ccc4cccc1c4c23
mutagenic call (Test System: AMES SALMONELLA TYPHIMURIUM, Strain/Indicator: TA98(1,8-DNP6), Metabolic Activation: NONE, Method: PREINCUBATION): active; positive
mutagenic call (Test System: AMES SALMONELLA TYPHIMURIUM, Strain/Indicator: TA98(1,8-DNP6), Metabolic Activation: RAT, LIVER, S-9, AROCLOR 1254, Method: PREINCUBATION): inactive; negative
mutagenic call (Test System: AMES SALMONELLA TYPHIMURIUM, Strain/Indicator: TA98(NR), Metabolic Activation: NONE, Method: PREINCUBATION): active; positive
mutagenic call (Test System: AMES SALMONELLA TYPHIMURIUM, Strain/Indicator: TA98(NR), Metabolic Activation: RAT, LIVER, S-9, AROCLOR 1254, Method: PREINCUBATION): active; positive
mutagenic call [1]: active; positive
mutagenic call (Test System: AMES SALMONELLA TYPHIMURIUM, Strain/Indicator: TA98, Metabolic Activation: RAT, LIVER, S-9, AROCLOR 1254, Method: PREINCUBATION): active; positive
mutagenic call [2]: active; positive
mutagenic call (Test System: AMES SALMONELLA TYPHIMURIUM, Strain/Indicator: TA100, Metabolic Activation: RAT, LIVER, S-9, AROCLOR 1254, Method: PREINCUBATION): active; positive

CCN(Cc1ccccc1)c1ccccc1
mutagenic call (Test System: AMES SALMONELLA TYPHIMURIUM, Strain/Indicator: TA97, Metabolic Activation: HAMSTER, LIVER, S-9, AROCLOR 1254 (10 OR 30%), Method: PREINCUBATION): inactive; negative
mutagenic call (Test System: AMES SALMONELLA TYPHIMURIUM, Strain/Indicator: TA97, Metabolic Activation: NONE, Method: PREINCUBATION): inactive; negative
mutagenic call (Test System: AMES SALMONELLA TYPHIMURIUM, Strain/Indicator: TA97, Metabolic Activation: RAT, LIVER, S-9, AROCLOR 1254 (10 OR 30%), Method: PREINCUBATION): inactive; negative
mutagenic call (Test System: AMES SALMONELLA TYPHIMURIUM, Strain/Indicator: TA98, Metabolic Activation: HAMSTER, LIVER, S-9, AROCLOR 1254 (10 OR 30%), Method: PREINCUBATION): inactive; negative
mutagenic call [1]: inactive; negative
mutagenic call (Test System: AMES SALMONELLA TYPHIMURIUM, Strain/Indicator: TA98, Metabolic Activation: RAT LIVER S-9, PHENOBARBITAL AND BETA-NAPHTHOFLAVONE, Method: PREINCUBATION): inactive; negative
mutagenic call (Test System: AMES SALMONELLA TYPHIMURIUM, Strain/Indicator: TA98, Metabolic Activation: RAT, LIVER, S-9, AROCLOR 1254 (10 OR 30%), Method: PREINCUBATION): inactive; negative
mutagenic call (Test System: AMES SALMONELLA TYPHIMURIUM, Strain/Indicator: TA100, Metabolic Activation: HAMSTER, LIVER, S-9, AROCLOR 1254 (10 OR 30%), Method: PREINCUBATION): inactive; negative
mutagenic call [2]: inactive; negative
mutagenic call (Test System: AMES SALMONELLA TYPHIMURIUM, Strain/Indicator: TA100, Metabolic Activation: RAT LIVER S-9, PHENOBARBITAL AND BETA-NAPHTHOFLAVONE, Method: PREINCUBATION): inactive; negative
mutagenic call (Test System: AMES SALMONELLA TYPHIMURIUM, Strain/Indicator: TA100, Metabolic Activation: RAT, LIVER, S-9, AROCLOR 1254 (10 OR 30%), Method: PREINCUBATION): inactive; negative
mutagenic call (Test System: AMES SALMONELLA TYPHIMURIUM, Strain/Indicator: TA1535, Metabolic Activation: HAMSTER, LIVER, S-9, AROCLOR 1254 (10 OR 30%), Method: PREINCUBATION): inactive; negative
mutagenic call (Test System: AMES SALMONELLA TYPHIMURIUM, Strain/Indicator: TA1535, Metabolic Activation: NONE, Method: PREINCUBATION): inactive; negative
mutagenic call (Test System: AMES SALMONELLA TYPHIMURIUM, Strain/Indicator: TA1535, Metabolic Activation: RAT LIVER S-9, PHENOBARBITAL AND BETA-NAPHTHOFLAVONE, Method: PREINCUBATION): inactive; negative
mutagenic call (Test System: AMES SALMONELLA TYPHIMURIUM, Strain/Indicator: TA1535, Metabolic Activation: RAT, LIVER, S-9, AROCLOR 1254 (10 OR 30%), Method: PREINCUBATION): inactive; negative
mutagenic call (Test System: AMES SALMONELLA TYPHIMURIUM, Strain/Indicator: TA1537, Metabolic Activation: NONE, Method: PREINCUBATION): inactive; negative
mutagenic call (Test System: AMES SALMONELLA TYPHIMURIUM, Strain/Indicator: TA1537, Metabolic Activation: RAT LIVER S-9, PHENOBARBITAL AND BETA-NAPHTHOFLAVONE, Method: PREINCUBATION): inactive; negative
mutagenic call (Test System: AMES SALMONELLA TYPHIMURIUM, Strain/Indicator: TA1538, Metabolic Activation: NONE, Method: PREINCUBATION): inactive; negative
mutagenic call (Test System: AMES SALMONELLA TYPHIMURIUM, Strain/Indicator: TA1538, Metabolic Activation: RAT LIVER S-9, PHENOBARBITAL AND BETA-NAPHTHOFLAVONE, Method: PREINCUBATION): inactive; negative
mutagenic call (Test System: E.COLI, Strain/Indicator: WP2UVRA, Metabolic Activation: NONE, Method: PREINCUBATION): inactive; negative
mutagenic call (Test System: E.COLI, Strain/Indicator: WP2UVRA, Metabolic Activation: RAT LIVER S-9, PHENOBARBITAL AND BETA-NAPHTHOFLAVONE, Method: PREINCUBATION): inactive; negative
